Compound `CC(C)NC(=O)c1c(I)cccc1C(=O)Nc1ccc(OCC(F)(F)F)nc1` [Compound 1, 3-iodo-N^2-(1-methylethyl)-N^1-[6-(2,2,2-trifluoroethoxy)-3-pyridinyl]-1,2-benzenedicarboxamide] returned a melting point of 220 to 225 °C.

(Values after patent US20040063738A1, “Substituted heterocyclic phthalic acid diamide arthropodicides” (priority 2003, published 2004).)
